Data: patent publication US12226412B2, “Heteroaryl-ketone fused azadecalin glucocorticoid receptor modulators” (Corcept Therapeutics, Inc., priority 2012, dated 2025)
Read-outs that look alike come from different tables or passages of the source.

Experiments:
[1] = test system: induction of TAT by dexamethasone in HepG2 cells; experiment: HepG2 tyrosine aminotransferase (TAT) assay; format: cell-based, human
human recombinant GR = molecular target: T1, human recombinant GR (Homo sapiens, UniProt P04150); experiment: Human glucocorticoid receptor (GR) fluorescence polarisation (FP) binding assay
T1 construct: purchased PanVera P2812
T1 sequence (P04150 1-777): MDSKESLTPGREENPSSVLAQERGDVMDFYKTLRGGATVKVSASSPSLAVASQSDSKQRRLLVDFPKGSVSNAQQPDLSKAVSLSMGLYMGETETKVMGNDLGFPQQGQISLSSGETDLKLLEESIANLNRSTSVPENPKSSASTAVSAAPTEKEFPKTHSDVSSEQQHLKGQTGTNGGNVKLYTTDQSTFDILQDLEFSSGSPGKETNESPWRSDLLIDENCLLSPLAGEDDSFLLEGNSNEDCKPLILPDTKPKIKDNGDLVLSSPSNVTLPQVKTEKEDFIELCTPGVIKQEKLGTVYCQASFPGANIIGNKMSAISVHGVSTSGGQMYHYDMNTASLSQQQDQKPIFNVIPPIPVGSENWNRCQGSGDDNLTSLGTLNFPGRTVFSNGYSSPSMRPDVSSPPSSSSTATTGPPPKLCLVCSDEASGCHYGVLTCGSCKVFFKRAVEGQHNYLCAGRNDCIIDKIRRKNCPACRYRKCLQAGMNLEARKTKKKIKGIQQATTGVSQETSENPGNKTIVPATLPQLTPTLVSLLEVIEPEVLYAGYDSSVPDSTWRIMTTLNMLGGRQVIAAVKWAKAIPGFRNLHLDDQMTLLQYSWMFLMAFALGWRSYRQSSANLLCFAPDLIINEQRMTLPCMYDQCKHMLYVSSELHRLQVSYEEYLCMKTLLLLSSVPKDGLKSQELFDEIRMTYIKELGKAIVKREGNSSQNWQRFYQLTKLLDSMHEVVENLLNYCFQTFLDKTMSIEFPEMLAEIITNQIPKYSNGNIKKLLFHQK
Summary of the method: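 Competition fluorescence polarisation: 0.5 nM GS Red labelled glucocorticoid and 1 nM recombinant human GR with 8-point half-log compound series, 1% DMSO, 4 h room temperature, potassium phosphate pH 7.4 buffer with molybdate, EDTA, DTT. Affinity derived from the drop in polarisation, normalised to blank wells.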

[2] = HepG2 cells, challenge of 100 nM dexamethasone, Ki from IC50 by Cheng and Prusoff equation
[3] = human recombinant GR, fluorescence polarisation binding assay, read-out: GR binding

Ki (human recombinant GR; [3]) [nM] | SMILES | Ki [1, 2] [nM] | Ki [1] [nM] | Ki (human recombinant GR) [nM]
< 0.5 | Cc1cccc(S(=O)(=O)N2CCC3=Cc4c(cnn4-c4ccc(F)cc4)C[C@]3(C(=O)c3ccccn3)C2)n1 [Example 11O, (R)-(1-(4-fluorophenyl)-6-((6-methylpyridin-2-yl)sulfonyl)-4,4a,5,6,7,8-hexahydro-1H-pyrazolo[3,4-g]isoquinolin-4a-yl)(pyridin-2-yl)methanone] | < 20 |  | 
< 0.5 | Cc1ccc(S(=O)(=O)N2CCC3=Cc4c(cnn4-c4ccc(F)cc4)C[C@]3(C(=O)c3ccccn3)C2)cc1C [Example 11M, (R)-(6-((3,4-dimethylphenyl)sulfonyl)-1-(4-fluorophenyl)-4,4a,5,6,7,8-hexahydro-1H-pyrazolo[3,4-g]isoquinolin-4a-yl)(pyridin-2-yl)methanone] | < 20 |  | 
0.5 to 1 | Cn1ccnc1C(=O)[C@]12Cc3cnn(-c4ccc(F)cc4)c3C=C1CCN(S(=O)(=O)c1ccc(C(F)(F)F)cc1)C2 [Example 1A, (R)-(1-(4-fluorophenyl)-6-((4-(trifluoromethyl)phenyl)sulfonyl)-4,4a,5,6,7,8-hexahydro-1H-pyrazolo[3,4-g]isoquinolin-4a-yl)(1-methyl-1H-imidazol-2-yl)methanone] | 20 to 100 |  | 
> 1 | O=C(c1cscn1)[C@]12Cc3cnn(-c4ccc(F)cc4)c3C=C1CCN(S(=O)(=O)c1ccc(F)c(F)c1)C2 [Example 11BU, (R)-(6-((3,4-difluorophenyl)sulfonyl)-1-(4-fluorophenyl)-4,4a,5,6,7,8-hexahydro-1H-pyrazolo[3,4-g]isoquinolin-4a-yl)(thiazol-4-yl)methanone] | 20 to 100 |  | 
< 0.5 | CCn1cnc(S(=O)(=O)N2CCC3=Cc4c(cnn4-c4ccc(F)cc4)C[C@]3(C(=O)c3cc(C(F)(F)F)ccn3)C2)c1 [Example 11BY, (R)-(6-((1-ethyl-1H-imidazol-4-yl)sulfonyl)-1-(4-fluorophenyl)-4,4a,5,6,7,8-hexahydro-1H-pyrazolo[3,4-g]isoquinolin-4a-yl)(4-(trifluoromethyl)pyridin-2-yl)methanone] | < 20 |  | 
< 0.5 | Cc1ccnc(C(=O)[C@]23Cc4cnn(-c5ccc(F)cc5)c4C=C2CCN(S(=O)(=O)c2ccnn2C)C3)c1 [Example 11AJ, (R)-(1-(4-fluorophenyl)-6-((1-methyl-1H-pyrazol-5-yl)sulfonyl)-4,4a,5,6,7,8-hexahydro-1H-pyrazolo[3,4-g]isoquinolin-4a-yl)(4-methylpyridin-2-yl)methanone] | < 20 |  | 
< 0.5 | O=C(c1nccs1)[C@]12Cc3cnn(-c4ccc(F)cc4)c3C=C1CCN(S(=O)(=O)c1cccc(C(F)(F)F)c1)C2 [Example 12, (R)-(1-(4-fluorophenyl)-6-((3-(trifluoromethyl)phenyl)sulfonyl)-4,4a,5,6,7,8-hexahydro-1H-pyrazolo[3,4-g]isoquinolin-4a-yl)(thiazol-2-yl)methanone] | < 20 |  | 
> 1 | CCCn1nncc1S(=O)(=O)N1CCC2=Cc3c(cnn3-c3ccc(F)cc3)C[C@]2(C(=O)c2ccccn2)C1 [Example 11CO, (R)-(1-(4-fluorophenyl)-6-((1-propyl-1H-1,2,3-triazol-5-yl)sulfonyl)-4,4a,5,6,7,8-hexahydro-1H-pyrazolo[3,4-g]isoquinolin-4a-yl)(pyridin-2-yl)methanone] | 20 to 100 |  | 
< 0.5 | O=C(c1ccccn1)[C@]12Cc3cnn(-c4ccc(F)cc4)c3C=C1CCN(S(=O)(=O)c1ccc(Cl)c(C(F)(F)F)c1)C2 [Example 11BF, (R)-(6-((4-chloro-3-(trifluoromethyl)phenyl)sulfonyl)-1-(4-fluorophenyl)-4,4a,5,6,7,8-hexahydro-1H-pyrazolo[3,4-g]isoquinolin-4a-yl)(pyridin-2-yl)methanone] | 20 to 100 |  | 
< 0.5 | O=C(c1cc(C(F)(F)F)ccn1)[C@]12Cc3cnn(-c4ccc(F)cc4)c3C=C1CCN(S(=O)(=O)c1cn[nH]c1)C2 [Example 11BO, (R)-(6-((1H-pyrazol-4-yl)sulfonyl)-1-(4-fluorophenyl)-4,4a,5,6,7,8-hexahydro-1H-pyrazolo[3,4-g]isoquinolin-4a-yl)(4-(trifluoromethyl)pyridin-2-yl)methanone] | < 20 |  | 

The next lines start with the molecule.

SMILES | Ki (human recombinant GR; [3]) [nM] | Ki [1, 2] [nM] | Ki [1] [nM] | Ki (human recombinant GR) [nM]
O=C(c1ccccn1)[C@]12Cc3cnn(-c4ccc(F)cc4)c3C=C1CCN(S(=O)(=O)c1cccc(Cl)c1)C2 [Example 2F, (R)-(6-((3-chlorophenyl)sulfonyl)-1-(4-fluorophenyl)-4,4a,5,6,7,8-hexahydro-1H-pyrazolo[3,4-g]isoquinolin-4a-yl)(pyridin-2-yl)methanone] |  |  | < 20 | < 0.5
O=C(c1ccccn1)[C@]12Cc3cnn(-c4ccc(F)cc4)c3C=C1CCN(S(=O)(=O)c1cccc(C(F)(F)F)c1)C2 [Example 5C, (R)-(1-(4-fluorophenyl)-6-((3-(trifluoromethyl)phenyl)sulfonyl)-4,4a,5,6,7,8-hexahydro-1H-pyrazolo[3,4-g]isoquinolin-4a-yl)(pyridin-2-yl)methanone] |  |  | < 20 | < 0.5
CS(=O)(=O)c1cccc(S(=O)(=O)N2CCC3=Cc4c(cnn4-c4ccc(F)cc4)C[C@]3(C(=O)c3ccccn3)C2)c1 [Example 11Y, (R)-(1-(4-fluorophenyl)-6-((3-(methylsulfonyl)phenyl)sulfonyl)-4,4a,5,6,7,8-hexahydro-1H-pyrazolo[3,4-g]isoquinolin-4a-yl)(pyridin-2-yl)methanone] | < 0.5 | 20 to 100 |  | 
O=C(c1nccs1)[C@]12Cc3cnn(-c4ccc(F)cc4)c3C=C1CCN(S(=O)(=O)c1ccc(F)c(F)c1)C2 [Example 12P, (R)-(6-((3,4-difluorophenyl)sulfonyl)-1-(4-fluorophenyl)-4,4a,5,6,7,8-hexahydro-1H-pyrazolo[3,4-g]isoquinolin-4a-yl)(thiazol-2-yl)methanone] | < 0.5 | 20 to 100 |  | 
Cn1cc(S(=O)(=O)N2CCC3=Cc4c(cnn4-c4ccc(F)cc4)C[C@]3(C(=O)c3cc(C(F)(F)F)ccn3)C2)nn1 [Example 11CG, (R)-(1-(4-fluorophenyl)-6-((1-methyl-1H-1,2,3-triazol-4-yl)sulfonyl)-4,4a,5,6,7,8-hexahydro-1H-pyrazolo[3,4-g]isoquinolin-4a-yl)(4-(trifluoromethyl)pyridin-2-yl)methanone] | < 0.5 | < 20 |  | 
Cc1c(S(=O)(=O)N2CCC3=Cc4c(cnn4-c4ccc(F)cc4)C[C@]3(C(=O)c3cc(C(F)(F)F)ccn3)C2)cnn1C [Example 11BN, (R)-(6-((1,5-dimethyl-1H-pyrazol-4-yl)sulfonyl)-1-(4-fluorophenyl)-4,4a,5,6,7,8-hexahydro-1H-pyrazolo[3,4-g]isoquinolin-4a-yl)(4-(trifluoromethyl)pyridin-2-yl)methanone] | < 0.5 | < 20 |  | 
O=C(c1ccccn1)[C@]12Cc3cnn(-c4ccc(F)cc4)c3C=C1CCN(S(=O)(=O)c1ccccc1)C2 [Example 2K, (R)-(1-(4-fluorophenyl)-6-(phenylsulfonyl)-4,4a,5,6,7,8-hexahydro-1H-pyrazolo [3,4-g]isoquinolin-4a-yl)(pyridin-2-yl)methanone] | < 0.5 | < 20 |  | 
O=C(c1nccs1)[C@]12Cc3cnn(-c4ccc(F)cc4)c3C=C1CCN(S(=O)(=O)c1ccc(C(F)(F)F)c(F)c1)C2 [Example 12K, (R)-(6-((3-fluoro-4-(trifluoromethyl)phenyl)sulfonyl)-1-(4-fluorophenyl)-4,4a,5,6,7,8-hexahydro-1H-pyrazolo[3,4-g]isoquinolin-4a-yl)(thiazol-2-yl)methanone] | < 0.5 | 20 to 100 |  | 
